Measurements from US6358999B2, “Use of zinc tranexamate in the treatment of diabetes” (Hamari Chemicals, LTD, priority 2000, dated 2002).

Assays:
intestinal α-glucosidase [1] = test: Inhibition of intestinal α-glucosidase activity of streptozocin-induced diabetic mouse; type: biochemical; settings: for Glucose (glucose production from maltose) / Glucose (glucose production from sucrose): diabetic mouse; for Glucose (glucose production from maltose): substrate maltose; for Glucose (glucose production from sucrose): substrate sucrose
Protocol: (§1) Intestinal tract enucleated from a normal mouse was homogenized by the conventional method after removing membrane mucosa. As a substrate, sucrose, starch, maltose or isomaltose was used. The homogenate was incubated with the substrate in the presence of a test compound (Y-4 or zinc chloride) at 37° C. for 30 minutes. The reaction mixture was centrifuged and the glucose concentration in the resulting supernatant was assayed. The glucose assay was conducted calorimetrically by adding a chromogenic reagent (0.47 mol/l of orthotoluidine, 16 mol/l of acetic acid, 10 mmol/l of boric acid) to the supernatant, heating the mixture in a boiling water bath for 8 minutes and measuring the absorbance at 635 nm. α-Glucosidase activity expressed in terms of glucose concentration/mg protein was calculated.
Example 5 was repeated using intestinal tract enucleated from a diabetic mouse induced by the treatment with streptozocin instead of intestinal tract enucleated from a normal mouse to determine the inhibitory effect of Y-4 on α-glycosidase activity. The intestinal α-glucosidase activity was higher in streptozocin-induced diabetic mouse than in normal mouse. […] The inhibitory effect of Y-4 was more remarkable in the diabetic mouse than in normal mouse.

[2] = Suppressive effect on elevation of blood sugar level after sucrose loading in mice; type: in vivo
Protocol: Each group consisting of five mice was fasted for 17-24 hours and then Y-4 was orally administered at varying doses.
Mice were orally given 1 g/kg body weight of sucrose 30 minutes after the administration of Y-4 or 2 g/kg body weight of sucrose 2 hours after the administration of Y-4. As in the preceding example, blood samples were collected from the tail end of mice at different time intervals and assayed for blood sugar levels.

[3] = Blood sugar and insulin levels in streptozocin-induced diabetic mice after sucrose loading; type: in vivo; settings: STZ diabetic mice; for Blood sugar level: 200 mg/kg p.o. 30 minutes before sucrose 2 g/kg
Protocol: Experimental diabetes was induced in mice by treating the mice with streptozocin (STZ) (100 mg/kg/day i.p. for two days). After fasting for 17-24 hours, the mice were orally given Y-4 at varying doses 30 minutes before loading 2 g/kg of sucrose. After sucrose loading, blood samples were collected and assayed for blood sugar levels at different time intervals as in the preceding examples.
Similar to the above experiments, Y-4 was orally administered to the mice having experimental diabetes at a dose of 100 mg/kg 30 minutes before loading of 2 g of sucrose. Blood sugar and insulin levels in blood samples collected 30 minutes after sugar loading are shown in FIG. 1 and FIG. 2, respectively.

[4] = Suppressive effect on elevation of blood sugar level after glucose loading in mice; type: in vivo
Protocol: Each group consisting of five mice was fasted for 17-24 hours and then Y-4 was orally administered at varying doses. After 30 minutes, mice were given glucose orally at a dose of 1 g/kg body weight. Blood samples were collected from the tail end of mice at different time intervals and assayed for blood sugar levels using GLUTEST™ sensor available from Matsushita Kotobuki Electronic Industry Company.

[5] = 1,200 mg/kg orally administered to mice; cited from earlier work
[6] = Improvement of insulin resistance in Wistar fatty rats with type II diabetes (glucose loading after 8 weeks); type: in vivo; settings: 150 mg/kg daily p.o. 8 weeks, after glucose 2.5 g/kg
Protocol: Y-4 was orally administered to male Wistar fatty rats (WFR) having tyep II diabetes with obesity and hyperlipidemia at an average daily dose of 150 mg/kg for consecutive 8 weeks. Eight weeks after the initiation of administration, the rats were fasted for 20 hours and then given oral administration of 2.5 g/kg/rat of glucose. Blood samples were collected from the tail vein at 30, 60, 120 and 180 minutes after the administration of glucose for assaying blood sugar and insulin levels. The results are shown in FIG. 3 and FIG. 4, respsectively.

intestinal α-glucosidase [7] = test: Inhibition of intestinal α-glucosidase activity of normal mouse (intestinal homogenate, glucose production); type: biochemical; settings: for Glucose (glucose production from isomaltose): substrate isomaltose; for Glucose (glucose production from isomaltose) / Glucose (glucose production from maltose) / Glucose (glucose production from sucrose): 37° C., 30 minutes; for Glucose (glucose production from maltose): substrate maltose; for Glucose (glucose production from sucrose): substrate sucrose
Protocol: as §1

[8] = 100 mg/kg p.o. 30 minutes before sucrose, 30 minutes after sugar loading

NC[C@H]1CC[C@H](C(=O)[O-])CC1.NC[C@H]1CC[C@H](C(=O)[O-])CC1.O.[Zn+2] [Y-4, zinc tranexamate monohydrate]
Glucose (glucose production from maltose) (intestinal α-glucosidase [1]; inhibitor 5 mM): 23.060 ± 1.129 mg/mg protein
Glucose (glucose production from maltose) (intestinal α-glucosidase [1]; inhibitor 10 mM): 18.569 ± 1.617 mg/mg protein
Glucose (glucose production from maltose) (intestinal α-glucosidase [1]; inhibitor 30 mM): 15.113 ± 0.093 mg/mg protein
Glucose (glucose production from maltose) (intestinal α-glucosidase [1]; inhibitor 50 mM): 12.793 ± 0.337 mg/mg protein
Glucose (glucose production from sucrose) (intestinal α-glucosidase [1]; inhibitor 5 mM): 10.128 ± 1.137 mg/mg protein
Glucose (glucose production from sucrose) (intestinal α-glucosidase [1]; inhibitor 10 mM): 5.312 ± 1.113 mg/mg protein
Glucose (glucose production from sucrose) (intestinal α-glucosidase [1]; inhibitor 30 mM): 3.146 ± 0.157 mg/mg protein
Glucose (glucose production from sucrose) (intestinal α-glucosidase [1]; inhibitor 50 mM): 2.251 ± 0.327 mg/mg protein
Inhibition of intestinal α-glucosidase, all substrates (intestinal α-glucosidase [1]; streptozocin-induced diabetic mouse): remarkably inhibited
Blood sugar level ([2]; 50 mg/kg p.o. 30 minutes before sucrose 1 g/kg, 20 min.): 71.0 ± 5.9 mg/dL
Blood sugar level ([2]; 50 mg/kg p.o. 30 minutes before sucrose 1 g/kg, 40 min.): 90.8 ± 10.0 mg/dL
Blood sugar level ([2]; 50 mg/kg p.o. 30 minutes before sucrose 1 g/kg, 60 min.): 76.6 ± 9.9 mg/dL
Blood sugar level ([2]; 50 mg/kg p.o. 30 minutes before sucrose 1 g/kg, 90 min.): 68.0 ± 8.1 mg/dL
Elevation of blood sugar level after sucrose loading ([2]; 100 mg/kg and 200 mg/kg 30 minutes before sucrose loading, up to 90 minutes): significant suppressive effect
Blood sugar level ([2]; 100 mg/kg p.o. 30 minutes before sucrose 1 g/kg, 20 min.): 50.8 ± 2.4 mg/dL
Blood sugar level ([2]; 100 mg/kg p.o. 30 minutes before sucrose 1 g/kg, 40 min.): 59.3 ± 2.4 mg/dL
Blood sugar level ([2]; 100 mg/kg p.o. 30 minutes before sucrose 1 g/kg, 60 min.): 72.9 ± 2.6 mg/dL
Blood sugar level ([2]; 100 mg/kg p.o. 30 minutes before sucrose 1 g/kg, 90 min.): 60.6 ± 2.3 mg/dL
Blood sugar level ([2]; 200 mg/kg p.o. 30 minutes before sucrose 1 g/kg, 20 min.): 40.4 ± 0.4 mg/dL
Blood sugar level ([2]; 200 mg/kg p.o. 30 minutes before sucrose 1 g/kg, 40 min.): 53.2 ± 7.5 mg/dL
Blood sugar level ([2]; 200 mg/kg p.o. 30 minutes before sucrose 1 g/kg, 60 min.): 58.2 ± 8.7 mg/dL
Blood sugar level ([2]; 200 mg/kg p.o. 30 minutes before sucrose 1 g/kg, 90 min.): 57.6 ± 3.2 mg/dL
Blood sugar level ([2]; 200 mg/kg p.o. 2 hours before sucrose 2 g/kg, 20 min.): 66.2 ± 6.3 mg/dL
Blood sugar level ([2]; 200 mg/kg p.o. 2 hours before sucrose 2 g/kg, 40 min.): 84.6 ± 8.9 mg/dL
Blood sugar level ([2]; 200 mg/kg p.o. 2 hours before sucrose 2 g/kg, 60 min.): 94.0 ± 18.0 mg/dL
Blood sugar level ([2]; 200 mg/kg p.o. 2 hours before sucrose 2 g/kg, 90 min.): 94.4 ± 17.2 mg/dL
Blood sugar level (FIG. 1) [3, 8]: suppressed the elevation of blood sugar level almost completely
Insulin level (FIG. 2) [3, 8]: not significantly different from the control value of normal mice group
Blood sugar level ([3]; 20 min.): 96.8 mg/dL
Blood sugar level ([3]; 40 min.): 134.2 mg/dL
Blood sugar level ([3]; 60 min.): 138.2 mg/dL
Blood sugar level ([3]; 90 min.): 137.0 mg/dL
Blood sugar level ([3]; 180 min.): 131.8 mg/dL
Elevation of blood sugar level after sucrose loading in diabetic mice ([3]; 30 minutes before sucrose loading, up to 3 hours): remarkably suppressed the elevation of blood sugar level
Blood sugar level ([4]; 50 mg/kg p.o. 30 min before glucose 1 g/kg, 20 min.): 96.0 ± 3.5 mg/dL
Blood sugar level ([4]; 50 mg/kg p.o. 30 min before glucose 1 g/kg, 40 min.): 104.8 ± 7.1 mg/dL
Blood sugar level ([4]; 50 mg/kg p.o. 30 min before glucose 1 g/kg, 60 min.): 99.0 ± 14.0 mg/dL
Blood sugar level ([4]; 50 mg/kg p.o. 30 min before glucose 1 g/kg, 120 min.): 78.4 ± 6.4 mg/dL
Blood sugar level ([4]; 50 mg/kg p.o. 30 min before glucose 1 g/kg, 180 min.): 58.4 ± 6.0 mg/dL
Blood sugar level ([4]; 100 mg/kg p.o. 30 min before glucose 1 g/kg, 20 min.): 89.0 ± 2.9 mg/dL
Blood sugar level ([4]; 100 mg/kg p.o. 30 min before glucose 1 g/kg, 40 min.): 112.6 ± 5.0 mg/dL
Blood sugar level ([4]; 100 mg/kg p.o. 30 min before glucose 1 g/kg, 60 min.): 97.6 ± 0.9 mg/dL
Blood sugar level ([4]; 100 mg/kg p.o. 30 min before glucose 1 g/kg, 120 min.): 73.1 ± 2.5 mg/dL
Blood sugar level ([4]; 100 mg/kg p.o. 30 min before glucose 1 g/kg, 180 min.): 52.1 ± 1.9 mg/dL
Blood sugar level ([4]; 200 mg/kg p.o. 30 min before glucose 1 g/kg, 20 min.): 83.0 ± 4.1 mg/dL
Blood sugar level ([4]; 200 mg/kg p.o. 30 min before glucose 1 g/kg, 40 min.): 95.2 ± 3.6 mg/dL
Blood sugar level ([4]; 200 mg/kg p.o. 30 min before glucose 1 g/kg, 60 min.): 84.4 ± 2.8 mg/dL
Blood sugar level ([4]; 200 mg/kg p.o. 30 min before glucose 1 g/kg, 120 min.): 66.2 ± 3.3 mg/dL
Blood sugar level ([4]; 200 mg/kg p.o. 30 min before glucose 1 g/kg, 180 min.): 53.9 ± 2.1 mg/dL
Elevation of blood sugar level after glucose loading ([4]; varying oral doses 30 minutes before glucose 1 g/kg): suppressed elevation of blood sugar level
Acute toxicity (death) [5]: no death
Blood sugar level (FIG. 3) [6]: significantly controlled
Insulin level (FIG. 4) [6]: normalized
Glucose (glucose production from isomaltose) (intestinal α-glucosidase [7]; inhibitor 5 mM): 5.009 ± 0.387 mg/mg protein
Glucose (glucose production from isomaltose) (intestinal α-glucosidase [7]; inhibitor 10 mM): 4.150 ± 0.351 mg/mg protein
Glucose (glucose production from isomaltose) (intestinal α-glucosidase [7]; inhibitor 30 mM): 3.473 ± 0.520 mg/mg protein
Glucose (glucose production from isomaltose) (intestinal α-glucosidase [7]; inhibitor 50 mM): 3.158 ± 0.206 mg/mg protein
Glucose (glucose production from maltose) (intestinal α-glucosidase [7]; inhibitor 5 mM): 17.956 ± 0.423 mg/mg protein
Glucose (glucose production from maltose) (intestinal α-glucosidase [7]; inhibitor 10 mM): 14.810 ± 0.956 mg/mg protein
Glucose (glucose production from maltose) (intestinal α-glucosidase [7]; inhibitor 30 mM): 10.963 ± 0.399 mg/mg protein
Glucose (glucose production from maltose) (intestinal α-glucosidase [7]; inhibitor 50 mM): 5.353 ± 0.017 mg/mg protein
Glucose (glucose production from sucrose) (intestinal α-glucosidase [7]; inhibitor 5 mM): 4.078 ± 0.073 mg/mg protein
Glucose (glucose production from sucrose) (intestinal α-glucosidase [7]; inhibitor 10 mM): 1.682 ± 0.097 mg/mg protein
Glucose (glucose production from sucrose) (intestinal α-glucosidase [7]; inhibitor 30 mM): 0.726 ± 0.157 mg/mg protein
Glucose (glucose production from sucrose) (intestinal α-glucosidase [7]; inhibitor 50 mM): 0.436 ± 0.036 mg/mg protein
α-Glucosidase activity, all substrates (intestinal α-glucosidase [7]; sucrose, starch, maltose, isomaltose, concentration higher than 5 mM): inhibited α-glucosidase activity in the reaction with all substrates
